Assay results as given in ChEMBL document CHEMBL1136213, “2,6-disubstituted pyran-4-one and thiopyran-4-one inhibitors of DNA-Dependent protein kinase (DNA-PK)” (Bioorg Med Chem Lett, 2003).

Columns and labels:
[1] = biological target: T1, DNA-dependent protein kinase catalytic subunit (Homo sapiens, UniProt P78527); assay: Affinity for DNA-dependent protein kinase(DNA-PK) from HeLa cell extract
[2] = biological target: T1, DNA-dependent protein kinase catalytic subunit; assay: In vitro inhibition of DNA-dependent protein kinase(DNA-PK) from HeLa (human carcinoma) cells.; assay type: cell-based

T1 sequence (P78527 whole entry): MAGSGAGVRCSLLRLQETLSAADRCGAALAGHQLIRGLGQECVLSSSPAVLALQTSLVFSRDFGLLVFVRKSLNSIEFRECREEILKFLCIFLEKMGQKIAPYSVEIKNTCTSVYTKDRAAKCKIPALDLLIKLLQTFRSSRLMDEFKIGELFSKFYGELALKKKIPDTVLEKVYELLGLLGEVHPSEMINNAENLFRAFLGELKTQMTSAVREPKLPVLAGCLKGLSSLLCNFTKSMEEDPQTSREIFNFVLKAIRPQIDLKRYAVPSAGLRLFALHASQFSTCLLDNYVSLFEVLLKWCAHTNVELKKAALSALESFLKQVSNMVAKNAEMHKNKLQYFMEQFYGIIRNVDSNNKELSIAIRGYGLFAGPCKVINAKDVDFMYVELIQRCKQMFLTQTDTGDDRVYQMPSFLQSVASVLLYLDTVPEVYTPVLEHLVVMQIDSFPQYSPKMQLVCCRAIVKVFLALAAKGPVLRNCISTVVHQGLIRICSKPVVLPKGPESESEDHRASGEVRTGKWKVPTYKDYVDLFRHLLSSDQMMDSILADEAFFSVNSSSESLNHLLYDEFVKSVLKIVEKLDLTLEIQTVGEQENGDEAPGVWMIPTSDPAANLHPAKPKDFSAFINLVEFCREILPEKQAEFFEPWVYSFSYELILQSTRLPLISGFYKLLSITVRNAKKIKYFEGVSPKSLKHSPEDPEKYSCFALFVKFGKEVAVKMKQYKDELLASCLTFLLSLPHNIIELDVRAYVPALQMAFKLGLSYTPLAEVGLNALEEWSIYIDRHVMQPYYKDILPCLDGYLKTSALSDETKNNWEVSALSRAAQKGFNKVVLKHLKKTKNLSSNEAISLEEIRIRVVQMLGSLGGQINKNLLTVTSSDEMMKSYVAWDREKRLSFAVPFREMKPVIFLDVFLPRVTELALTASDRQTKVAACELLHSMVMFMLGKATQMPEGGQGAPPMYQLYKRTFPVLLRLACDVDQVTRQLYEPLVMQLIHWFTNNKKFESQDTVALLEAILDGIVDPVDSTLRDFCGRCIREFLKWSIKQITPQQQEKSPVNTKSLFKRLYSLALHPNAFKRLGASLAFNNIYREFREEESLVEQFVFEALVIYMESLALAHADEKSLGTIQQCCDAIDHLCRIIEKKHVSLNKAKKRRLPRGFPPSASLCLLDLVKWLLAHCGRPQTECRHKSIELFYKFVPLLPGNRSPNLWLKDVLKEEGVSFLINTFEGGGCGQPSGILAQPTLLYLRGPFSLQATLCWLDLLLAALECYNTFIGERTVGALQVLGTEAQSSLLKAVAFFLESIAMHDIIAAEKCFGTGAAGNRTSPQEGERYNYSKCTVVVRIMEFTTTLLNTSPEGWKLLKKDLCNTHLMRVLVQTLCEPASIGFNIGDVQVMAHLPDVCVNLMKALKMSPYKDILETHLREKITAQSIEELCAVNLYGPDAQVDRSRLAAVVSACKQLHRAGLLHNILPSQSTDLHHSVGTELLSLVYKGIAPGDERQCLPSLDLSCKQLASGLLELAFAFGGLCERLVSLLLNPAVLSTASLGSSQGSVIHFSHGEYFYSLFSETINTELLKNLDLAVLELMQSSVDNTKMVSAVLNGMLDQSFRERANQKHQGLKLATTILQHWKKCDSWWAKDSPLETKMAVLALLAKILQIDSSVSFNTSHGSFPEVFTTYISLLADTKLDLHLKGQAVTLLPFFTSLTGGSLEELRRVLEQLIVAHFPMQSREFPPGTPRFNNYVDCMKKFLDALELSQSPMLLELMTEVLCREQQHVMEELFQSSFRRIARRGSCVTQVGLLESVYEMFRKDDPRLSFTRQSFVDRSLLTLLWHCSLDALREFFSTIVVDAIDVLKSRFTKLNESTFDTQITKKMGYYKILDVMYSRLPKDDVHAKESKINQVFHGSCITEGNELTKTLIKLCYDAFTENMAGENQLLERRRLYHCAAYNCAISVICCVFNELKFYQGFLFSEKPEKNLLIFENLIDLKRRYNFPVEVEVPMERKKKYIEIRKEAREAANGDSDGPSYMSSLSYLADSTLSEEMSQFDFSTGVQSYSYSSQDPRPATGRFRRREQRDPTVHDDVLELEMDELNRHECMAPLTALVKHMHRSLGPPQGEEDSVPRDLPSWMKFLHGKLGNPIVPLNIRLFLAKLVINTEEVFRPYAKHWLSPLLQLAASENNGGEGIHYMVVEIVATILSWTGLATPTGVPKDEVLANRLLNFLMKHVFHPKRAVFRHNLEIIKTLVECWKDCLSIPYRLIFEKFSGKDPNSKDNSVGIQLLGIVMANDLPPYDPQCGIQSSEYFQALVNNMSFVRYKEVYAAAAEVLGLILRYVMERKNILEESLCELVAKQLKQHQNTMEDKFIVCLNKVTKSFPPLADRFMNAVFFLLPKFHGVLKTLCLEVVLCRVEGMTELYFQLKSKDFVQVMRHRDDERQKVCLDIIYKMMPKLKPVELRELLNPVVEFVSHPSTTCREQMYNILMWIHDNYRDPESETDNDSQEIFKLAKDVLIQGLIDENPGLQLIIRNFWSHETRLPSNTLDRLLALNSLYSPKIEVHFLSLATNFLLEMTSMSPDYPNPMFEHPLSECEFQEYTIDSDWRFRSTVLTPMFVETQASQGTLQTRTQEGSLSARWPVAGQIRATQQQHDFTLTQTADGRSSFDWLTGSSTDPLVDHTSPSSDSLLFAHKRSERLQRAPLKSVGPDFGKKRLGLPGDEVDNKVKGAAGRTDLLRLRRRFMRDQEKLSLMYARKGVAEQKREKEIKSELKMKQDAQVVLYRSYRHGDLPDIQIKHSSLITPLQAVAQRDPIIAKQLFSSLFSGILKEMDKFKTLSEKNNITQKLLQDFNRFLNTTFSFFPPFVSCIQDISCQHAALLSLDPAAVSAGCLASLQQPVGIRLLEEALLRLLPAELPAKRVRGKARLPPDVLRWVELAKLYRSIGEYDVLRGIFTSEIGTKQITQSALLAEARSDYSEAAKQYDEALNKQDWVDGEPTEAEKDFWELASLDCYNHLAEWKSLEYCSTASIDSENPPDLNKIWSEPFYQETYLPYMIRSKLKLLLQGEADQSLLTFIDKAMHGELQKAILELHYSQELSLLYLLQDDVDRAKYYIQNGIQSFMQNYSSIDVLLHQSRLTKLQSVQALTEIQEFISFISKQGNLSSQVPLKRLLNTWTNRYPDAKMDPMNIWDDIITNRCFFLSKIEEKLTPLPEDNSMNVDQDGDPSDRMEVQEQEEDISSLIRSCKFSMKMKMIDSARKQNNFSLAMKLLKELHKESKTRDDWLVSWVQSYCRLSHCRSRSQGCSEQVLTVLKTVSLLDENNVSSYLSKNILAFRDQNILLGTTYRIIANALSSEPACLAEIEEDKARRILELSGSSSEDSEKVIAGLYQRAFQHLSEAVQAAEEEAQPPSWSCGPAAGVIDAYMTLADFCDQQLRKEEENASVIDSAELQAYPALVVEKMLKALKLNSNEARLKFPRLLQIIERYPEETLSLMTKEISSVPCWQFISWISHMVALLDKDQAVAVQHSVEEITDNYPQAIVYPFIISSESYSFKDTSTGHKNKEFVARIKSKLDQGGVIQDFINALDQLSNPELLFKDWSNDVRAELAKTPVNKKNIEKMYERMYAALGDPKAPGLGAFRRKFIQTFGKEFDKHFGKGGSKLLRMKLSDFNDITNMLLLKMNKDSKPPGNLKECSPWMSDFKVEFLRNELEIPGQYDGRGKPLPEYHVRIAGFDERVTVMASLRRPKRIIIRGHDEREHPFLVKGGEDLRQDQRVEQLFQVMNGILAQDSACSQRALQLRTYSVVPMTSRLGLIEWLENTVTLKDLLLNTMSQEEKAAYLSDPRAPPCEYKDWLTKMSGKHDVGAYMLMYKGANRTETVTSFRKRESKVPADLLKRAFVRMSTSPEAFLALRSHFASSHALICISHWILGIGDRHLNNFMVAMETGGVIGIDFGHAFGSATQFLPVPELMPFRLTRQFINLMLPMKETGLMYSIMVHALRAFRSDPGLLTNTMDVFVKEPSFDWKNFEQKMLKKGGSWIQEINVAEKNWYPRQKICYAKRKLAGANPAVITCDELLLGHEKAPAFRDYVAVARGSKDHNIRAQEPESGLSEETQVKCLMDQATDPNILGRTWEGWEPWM

Ki [1] | IC50 [2] | Structure (SMILES)
6000 nM |  | O=c1cc(N2CCOCC2)oc2c(-c3ccccc3)cccc12 [LY-294002]
 | 230 nM | O=c1cc(N2CCOCC2)oc2c1ccc1ccccc12
 | 350 nM | O=c1cc(-c2cccc(-c3ccc(O)cc3)c2)sc(N2CCOCC2)c1
